The test system of data set [1] is Mus musculus. In words: Anticonvulsant activity in ip dosed mouse after 0.5 hrs by MES test. The format is functional.
Data set [2] has as its system Mus musculus. The data set is described as follows: Anticonvulsant activity in ip dosed mouse after 4 hrs by MES test. The data set is classed as functional.
The subject of data set [3] is Mus musculus. In words: Anticonvulsant activity in ip dosed mouse after 0.5 hrs by scPTZ test. The format is functional.
Data set [4] relates to Mus musculus. In words: Anticonvulsant activity in ip dosed mouse after 4 hrs by scPTZ test. The data set is classed as functional.
For data set [5], the system named is Mus musculus. The data set is described as follows: Neurotoxicity in ip dosed mouse assessed as minimal motor impairment after 0.5 hrs by rotarod test. The format is toxicity, organism-based. To be noted: in vivo.
Data set [6] relates to Mus musculus. In words: Neurotoxicity in ip dosed mouse assessed as minimal motor impairment after 4 hrs by rotarod test. As to conditions: in vivo. The format is toxicity, organism-based. (The rotarod test checks motor coordination on a turning rod.)
The test system of data set [7] is Mus musculus. The data set is described as follows: Anticonvulsant activity in mouse at 300 mg/kg, ip after 0.5 hrs by MES test. The data set is classed as functional, organism-based. More on the design: dose 300 mg/kg.
Data set [8] has as its system Mus musculus. In words: Anticonvulsant activity in mouse at 300 mg/kg, ip after 4 hrs by MES test. The format is functional, organism-based. More on the design: dose 300 mg/kg.
In data set [9] the test system is Mus musculus. In words: Anticonvulsant activity in mouse at 300 mg/kg, ip after 0.5 hrs by scPTZ test. The format is functional, organism-based. Details: dose 300 mg/kg.
The test system of data set [10] is Mus musculus. In words: Anticonvulsant activity in mouse at 300 mg/kg, ip after 4 hrs by scPTZ test. The format is functional, organism-based. Details: dose 300 mg/kg.
The next data set relates to Rattus norvegicus. In words: Central nervous system depressant activity in Wistar rat assessed as immobility time at 100 mg/kg, po after 1 hr by forced swim pool test. The data set is classed as functional.
For data set [11], the system named is Mus musculus. In words: Neurotoxicity in mouse assessed as minimal motor impairment at 300 mg/kg, ip after 0.5 hrs by rotarod test. The format is toxicity, organism-based. To be noted: in vivo. More on the design: dose 300 mg/kg, route intraperitoneal.
Data set [12] relates to Mus musculus. In words: Neurotoxicity in mouse assessed as minimal motor impairment at 300 mg/kg, ip after 4 hrs by rotarod test. The format is toxicity, organism-based. More on the design: dose 300 mg/kg, route intraperitoneal. As to conditions: in vivo.
The test system of data set [13] is Mus musculus. In words: Neurotoxicity in ip dosed mouse assessed as minimal motor impairment at 100 mg/kg, ip after 1 hr by rotarod test. The format is toxicity, organism-based. Details: dose 100 mg/kg, route intraperitoneal. To be noted: in vivo.
For data set [14], the system named is Mus musculus. The data set is described as follows: Neurotoxicity in ip dosed mouse assessed as minimal motor impairment at 100 mg/kg, ip after 0.25 hrs by rotarod test. The data set is classed as toxicity, organism-based. More on the design: dose 100 mg/kg, route intraperitoneal. As to conditions: in vivo.
Data set [15] deals with Mus musculus. In words: Toxicity in mouse at 300 mg/kg, ip after 4 hrs. The data set is classed as organism-based. More on the design: dose 300 mg/kg, route intraperitoneal. As to conditions: in vivo.
Data set [16] concerns Mus musculus. In words: Neurotoxicity in ip dosed mouse assessed as loss of righting reflux after 0.5 hrs. The data set is classed as toxicity, organism-based. As to conditions: in vivo.

Activity calls are given as the source filed them. The rule behind the calls is not given here.

In the case of `NC(=O)N1c2ccccc2C=Cc2ccccc21` [CARBAMAZEPINE], the Activity with Mus musculus [1] came out at 30 mg/kg; with Mus musculus [3] it was 100 mg/kg; with Mus musculus [4], 300 mg/kg; in the data set on Mus musculus [5], 100 mg/kg; with Mus musculus [6], 100 mg/kg. Moreover, the Active dose with Mus musculus [2] stood at 100 mg/kg.
Consider `Cc1ccc(-c2nnc(-n3c(/C=C/c4cccc(Cl)c4)nc4ccccc4c3=O)s2)cc1`, for which the outcome in the data set on Mus musculus [7], in the data set with Mus musculus [8], in the data set with Mus musculus [9] and in the data set on Mus musculus [10] was inactive. For the same molecule, in the data set on Rattus norvegicus, the Time turned out to be 100.76 s. The Activity entry in the data set on Mus musculus [11] and in the data set on Mus musculus [12] was “Non-toxic” each time.
As for `O=c1c2ccccc2nc(/C=C/c2ccc(Cl)cc2)n1-c1nnc(-c2cccc(Cl)c2)s1`, the result with Mus musculus [7] and with Mus musculus [8] was inactive. The Activity in the data set on Mus musculus [3] is 300 mg/kg; in the data set on Mus musculus [4], 300 mg/kg; with Mus musculus [5], 300 mg/kg; with Mus musculus [13] it was 100 mg/kg; in the data set with Mus musculus [14], 100 mg/kg; in the data set on Mus musculus [12], “Non-toxic”. Moreover, in the data set with Rattus norvegicus, the Time is reported as 127.48 s.
Regarding `Cc1ccc(-c2nnc(-n3c(/C=C/c4ccncc4)nc4ccccc4c3=O)s2)cc1`, the result with Mus musculus [7], in the data set on Mus musculus [8], with Mus musculus [9] and with Mus musculus [10] was inactive. Also, the figures for the Activity in the data set on Mus musculus [5] and in the data set with Mus musculus [12] were 100 mg/kg and “Non-toxic”, respectively. Besides, the Time with Rattus norvegicus turned out to be 131.51 s.
On to `O=c1c2ccccc2nc(/C=C/c2ccncc2)n1-c1nnc(-c2cccc(Cl)c2)s1`, for which the outcome in the data set with Mus musculus [7], in the data set with Mus musculus [8], in the data set with Mus musculus [9] and in the data set with Mus musculus [10] was inactive. Also, the Activity with Mus musculus [5] and in the data set on Mus musculus [6] was 300 mg/kg each time. For the same molecule, in the data set with Rattus norvegicus, the Time amounted to 142.36 s.
Turning to `O=c1c2ccccc2nc(/C=C/c2ccncc2)n1-c1nnc(-c2ccc(Cl)cc2)s1`, the outcome in the data set on Mus musculus [7] was inactive. Besides, in the data set with Mus musculus [2], the Active dose is 100 mg/kg. Also, the Activity with Mus musculus [3] is 300 mg/kg; with Mus musculus [4] it was 300 mg/kg; with Mus musculus [5], 300 mg/kg; in the data set on Mus musculus [12] it was “Non-toxic”. Further, the Time in the data set on Rattus norvegicus is on record as 99.82 s.
As to `CCCC(CCC)C(=O)[O-].[Na+]` [VALPROATE SODIUM], the outcome in the data set with Mus musculus [7], in the data set on Mus musculus [8] and in the data set with Mus musculus [10] was inactive. Moreover, the Activity in the data set on Mus musculus [3] was 300 mg/kg; with Mus musculus [11], “Non-toxic”; in the data set on Mus musculus [12] it was “Non-toxic”.
On to `O=c1c2ccccc2nc(/C=C/c2ccncc2)n1-c1nnc(/C=C/c2ccccc2)s1`, for which the outcome with Mus musculus [7], in the data set with Mus musculus [8], in the data set with Mus musculus [9] and with Mus musculus [10] was inactive. Besides, the Time in the data set on Rattus norvegicus is 114.42 s. In addition, the Activity entry in the data set with Mus musculus [11] and in the data set on Mus musculus [12] was “Non-toxic” in each case.
Take `O=c1c2ccccc2nc(/C=C/c2ccc(Cl)cc2)n1-c1nnc(-c2ccccc2)s1`: the Activity with Mus musculus [1] is 100 mg/kg; in the data set with Mus musculus [3] it was 300 mg/kg; in the data set with Mus musculus [4], 300 mg/kg; in the data set with Mus musculus [15], “Toxic”; in the data set on Mus musculus [11] it was “Non-toxic”; in the data set with Mus musculus [12] it was “Non-toxic”. Besides, the Active dose in the data set on Mus musculus [2] was found to be 300 mg/kg. In addition, the Time in the data set with Rattus norvegicus is given as 103.26 s.
For `O=c1c2ccccc2nc(/C=C/c2ccc(Cl)cc2)n1-c1nnc(-c2ccc(Cl)cc2)s1`, the result in the data set on Mus musculus [7], with Mus musculus [8], with Mus musculus [9] and with Mus musculus [10] was inactive. For the same molecule, the Activity is 300 mg/kg in the data set on Mus musculus [5] and “Non-toxic” in the data set with Mus musculus [12]. In addition, the Time with Rattus norvegicus turned out to be 117.93 s.
For the molecule `COc1ccc(-c2nnc(-n3c(/C=C/c4ccc(Cl)cc4)nc4ccccc4c3=O)s2)cc1`, the outcome in the data set on Mus musculus [7], with Mus musculus [8], with Mus musculus [9] and in the data set with Mus musculus [10] was inactive. Moreover, the Activity in the data set with Mus musculus [5] and with Mus musculus [6] was 300 mg/kg in each case. The Time with Rattus norvegicus is listed as 177.08 s.
Consider `O=c1c2ccccc2nc(/C=C/c2cccc(Cl)c2)n1-c1nnc(/C=C/c2ccccc2)s1`, for which the outcome in the data set on Mus musculus [7], in the data set on Mus musculus [8], in the data set on Mus musculus [9] and in the data set on Mus musculus [10] was inactive. Moreover, in the data set on Rattus norvegicus, the Time amounted to 187.91 s. The Activity entry in the data set on Mus musculus [11] and in the data set on Mus musculus [12] was “Non-toxic” in each case.
As to `O=c1c2ccccc2nc(/C=C/c2ccc(Cl)cc2)n1-c1nnc(/C=C/c2ccccc2)s1`, the outcome in the data set with Mus musculus [7], with Mus musculus [8], with Mus musculus [9] and with Mus musculus [10] was inactive. Besides, the Time in the data set on Rattus norvegicus worked out at 73.83 s. The Activity entry with Mus musculus [11] and in the data set on Mus musculus [12] was “Non-toxic” in each case.
As for `CCC1(C)CC(=O)NC1=O` (centres undefined) [ETHOSUXIMIDE], the result with Mus musculus [7], with Mus musculus [8] and in the data set on Mus musculus [10] was inactive. In addition, the results for the Activity with Mus musculus [3], in the data set on Mus musculus [11] and in the data set on Mus musculus [12] were 300 mg/kg, “Non-toxic” and “Non-toxic”, respectively.
With `COc1ccc(-c2nnc(-n3c(/C=C/c4cccc(Cl)c4)nc4ccccc4c3=O)s2)cc1`, the outcome in the data set with Mus musculus [7], in the data set on Mus musculus [8], with Mus musculus [9] and in the data set on Mus musculus [10] was inactive. Also, the Time in the data set with Rattus norvegicus is recorded as 163.21 s. Moreover, the Activity entry with Mus musculus [11] and with Mus musculus [12] was “Non-toxic” throughout.
Take `O=c1c2ccccc2nc(/C=C/c2cccc(Cl)c2)n1-c1nnc(-c2cccc(Cl)c2)s1`: the outcome in the data set with Mus musculus [7], in the data set with Mus musculus [8], in the data set with Mus musculus [9] and with Mus musculus [10] was inactive. In the data set on Rattus norvegicus, the Time amounted to 175.83 s. Moreover, the Activity entry in the data set on Mus musculus [11] and in the data set on Mus musculus [12] was “Non-toxic” throughout.
Consider `COc1ccc(-c2nnc(-n3c(/C=C/c4ccncc4)nc4ccccc4c3=O)s2)cc1`, for which the outcome with Mus musculus [7], in the data set on Mus musculus [8], in the data set on Mus musculus [9] and in the data set on Mus musculus [10] was inactive. Further, the Time in the data set on Rattus norvegicus was 168.42 s. Besides, the Activity result in the data set with Mus musculus [11] and in the data set on Mus musculus [12] was “Non-toxic” throughout.
In the case of `Cc1ccc(-c2nnc(-n3c(/C=C/c4ccc(Cl)cc4)nc4ccccc4c3=O)s2)cc1`, the result with Mus musculus [7], in the data set on Mus musculus [8], in the data set on Mus musculus [9] and in the data set with Mus musculus [10] was inactive. For the same molecule, the Activity in the data set with Mus musculus [5] was 300 mg/kg; in the data set on Mus musculus [12], “Non-toxic”. In addition, the Time in the data set on Rattus norvegicus is reported as 150.1 s.
Consider `O=c1c2ccccc2nc(/C=C/c2cccc(Cl)c2)n1-c1nnc(-c2ccccc2)s1`, for which the result with Mus musculus [7], in the data set on Mus musculus [8], in the data set with Mus musculus [9] and with Mus musculus [10] was inactive. Besides, the Activity is 300 mg/kg in the data set on Mus musculus [5], “Toxic” with Mus musculus [16] and “Non-toxic” with Mus musculus [12]. Also, in the data set on Rattus norvegicus, the Time came out at 132.69 s.
Turning to `O=C1NC(=O)C(c2ccccc2)(c2ccccc2)N1` [PHENYTOIN], the Activity came to 30 mg/kg with Mus musculus [1], 100 mg/kg in the data set on Mus musculus [5] and 100 mg/kg in the data set with Mus musculus [6]. Also, the Active dose in the data set with Mus musculus [2] amounted to 30 mg/kg. Also, the result in the data set with Mus musculus [9] and in the data set with Mus musculus [10] was inactive.
Turning to `O=c1c2ccccc2nc(/C=C/c2cccc(Cl)c2)n1-c1nnc(-c2ccc(Cl)cc2)s1`, the result in the data set with Mus musculus [7], in the data set on Mus musculus [8], in the data set with Mus musculus [9] and with Mus musculus [10] was inactive. Moreover, in the data set with Rattus norvegicus, the Time is recorded as 163.75 s. Also, the Activity result in the data set with Mus musculus [11] and in the data set on Mus musculus [12] was “Non-toxic” in each case.
Consider `O=c1c2ccccc2nc(/C=C/c2ccncc2)n1-c1nnc(-c2ccccc2)s1`, for which the outcome in the data set on Mus musculus [7], in the data set on Mus musculus [8], with Mus musculus [9] and in the data set on Mus musculus [10] was inactive. The Time in the data set on Rattus norvegicus turned out to be 83.23 s. For the same molecule, the Activity entry with Mus musculus [11] and with Mus musculus [12] was “Non-toxic” throughout.

Values taken from ChEMBL document CHEMBL1156712, “CNS depressant and anticonvulsant activities of some novel 3-[5-substituted 1,3,4-thiadiazole-2-yl]-2-styryl quinazoline-4(3H)-ones” (Eur J Med Chem, 2008).
